Patent US12410141B2, “Anti-cancer spirocyclic-guanidine compounds and uses thereof” (The Johns Hopkins University, priority 2020, dated 2025)

What was measured:
PEA1 = assay: MTT cytotoxicity assay, PEA1; assay type: cell-based; conditions: PEA1, ovarian, 72 hr, read-out: IC50, cell killing
Procedure: (§1) All cell lines were obtained from the American Type Culture Collection (ATCC) and cultured in the specified medium supplemented with 10% fetal bovine serum, 100 IU/mL penicillin, and 100 μg/mL streptomycin at 37° C. in a humidified 5% CO2/95% air incubator. To assess drug cytotoxicity cells were seeded at 2,500 cells/well (10,000 cells/well for MM lines and primary cells) in 100 μL medium in 96-well plate. […]
(§2) It was examined whether the RPN13 inhibitor, RA475, was cytotoxic for cancer cell lines using the MTT assay.

HepG2 = assay: MTT cytotoxicity assay, HepG2; assay type: cell-based; conditions: HepG2, liver, 72 hr, read-out: IC50, cell killing
Procedure: as §1, §2

OVCAR3 [1] = assay: MTT cytotoxicity assay, OVCAR3; assay type: cell-based; conditions: OVCAR3, ovarian, 72 hr, read-out: IC50, cell killing
Procedure: as §1, §2

CD-1 mice = assay: Single-dose tolerability in CD-1 mice; assay type: in vivo, mouse
Procedure: All animal procedures were performed according to protocols approved by the Johns Hopkins University Animal Care and Use Committee, and in accordance with the AAALAC recommendations for the proper use and care of laboratory animals (protocol MO15M375, renewed as MO18M129). Four to six week old female CD-1 mice were purchased from Jackson Laboratories (ME, USA). Isoflurane anesthesia was used during imaging. The health conditions and/or criteria under which early euthanasia or withdrawal of an animal from the study was implemented included, but are not limited to, general signs of distress such as hunched posture, lethargy, anorexia, dehydration, rough hair coat and/or those that are directly related to the experimental procedures e.g. loss of weight >10%, lethargy, restricted movement of limbs, distended abdomen. Animals in distress were euthanized by carbon dioxide asphyxiation, and cervical dislocation was used to ensure death. This is an acceptable form of euthanasia for mice and in compliance with the recommendations of the Panel on Euthanasia of the American Veterinary Medical Association.
RA475 powder was directly dissolved in 25% β-hydroxy propyl cyclodextrin as a clear solution and administered at increasing single doses to CD-1 mice (n=3) via intraperitoneal injection.

[2] = Solubility compared with RA190; assay type: physicochemical; conditions: compared with prototypic RPN13 inhibitor RA190
4T1 = assay: MTT cytotoxicity assay, 4T1; assay type: cell-based; conditions: 4T1, breast (TNBC), 72 hr, read-out: IC50, cell killing
Procedure: as §1, §2

BT549 = assay: MTT cytotoxicity assay, BT549; assay type: cell-based; conditions: BT549, breast, 72 hr, read-out: IC50, cell killing
Procedure: as §1, §2

ES2 = assay: Flow cytometry analysis of cell death, ES2; assay type: cell-based; conditions: 1 μM or 2 μM, 16 hr
Procedure: (§3) 10^5 cells were re-suspended in binding buffer, 5 μL of Annexin V-PE (Apoptosis Detection Kit I (BD Pharmingen) and 5 μL of 7-AAD were then added into the cells, which were then incubated at room temperature for 15 minutes and analyzed by flow cytometry on a FACSCalibur using CellQuest software (Becton Dickinson).
(§4) Two ovarian cancer cell lines, ES2 and OVCAR3, were treated with 1 μM or 2 μM RA475 and 16 hr later the cells were harvested and stained with 7-AAD and Annexin V. 7-AAD is a DNA dye that can enter dying cells and Annexin V is commonly used to detect apoptotic cells by its ability to bind to phosphatidylserine, an early marker of apoptosis when it is exposed on the outer leaflet of the plasma membrane.

[3] = system: ID8-Vegf Defb29 cells stably expressing firefly luciferase in C57BL6 mice; assay: ID8-Luc syngeneic ovarian tumor model; assay type: in vivo, mouse; conditions: female C57BL6 mice, 40 mg/Kg every 3 days, i.p.
Procedure: Whereas vehicle treatment (n=7) increased tumor burden and ascites formation.
Briefly, female C57BL6 mice were injected (i.p.) with ID8-Vegf Defb29 cells stably expressing firefly luciferase (0.5×10^6 cells) in PBS (100 uL). After 72 hrs, mice were imaged for their basal luminescence levels using an IVIS200 imager. Mice with visible luminescence were randomized into two groups and treated with Vehicle (25% b-hydroxy propylcyclodextrin in water, 200 uL, every 3 days, i.p.) and RA475 (40 mg/Kg, every 3 days, i.p.). Mice were imaged every week to measure bioluminescence expressed by tumor after administration of luciferin (100 uL, 7.8 mg/mL).

PEO23 = assay: MTT cytotoxicity assay, PEO23; assay type: cell-based; conditions: PEO23, ovarian, 72 hr, read-out: IC50, cell killing
Procedure: as §1, §2

Br23C = assay: MTT cytotoxicity assay, Br23C; assay type: cell-based; conditions: glioblastoma multiforme, 72 hr, read-out: IC50, cell killing
Procedure: as §1, §2

OVCAR3 [4] = assay: Flow cytometry analysis of cell death, OVCAR3; assay type: cell-based; conditions: 1 μM or 2 μM, 16 hr
Procedure: as §3, §4

[5] = system: HCC1806 cells stably expressing 4UbFL; assay: 4UbFL proteasome reporter, HCC1806 cells; assay type: cell-based; conditions: 4 hr treatment, IVIS imager
Procedure: Data are presented as IVIS image (FIG. 8A) and bioluminescence units (FIG. 8B).
4T1 and HCC1806 cells were transfected with 4UbFL plasmid using TransIT2020 transfection reagent for a period of 48 hrs and cells were selected using G418 antibiotic from single colonies. Selected cells were seeded in a 24-well plate (50,000/well) and incubated for 18 h at 37° C. in an incubator. Next, cells were treated with compounds for the period of 4 hr and Luciferin was added (50 uL each well, 7.8 mg/mL) and imaged through an IVIS200 instrument and plotted as a bioluminescent value or fold increase to DMSO control.

TSH1 = assay: MTT cytotoxicity assay, TSH1; assay type: cell-based; conditions: TSH1, thyroid, 72 hr, read-out: IC50, cell killing
Procedure: as §1, §2

## Cl.Cl.N#Cc1ccc(/C=C2/C(=O)/C(=C/c3ccc(C#N)cc3)C23CCN(C(=N)N)CC3)cc1 [RA475]
PEA1
  IC50: 406 nM
HepG2
  IC50: 241 nM
OVCAR3 [1]
  IC50: 190 nM
CD-1 mice; single dose, intraperitoneal, 80 mg/Kg highest dose level tested
  NOAEL: > 80 mg/kg
CD-1 mice; single i.p. doses at or below 80 mg/Kg
  adverse events: No evidence of adverse events, including weight loss
[2]
  solubility relative to RA190: better solubility
4T1
  IC50: 261 nM
BT549
  IC50: 229 nM
ES2
  7-AAD and Annexin V double positive cells: dose-dependent induction
[3]
  body weight: no weight loss
  effect on tumor (bioluminescence): regressed tumor
  survival: enhanced survival
PEO23
  IC50: 350 nM
Br23C
  IC50: 750 nM
OVCAR3 [4]
  7-AAD and Annexin V double positive cells: dose-dependent induction
[5]
  bioluminescence of 4UbFL reporter: dose-dependent increase
TSH1
  IC50: 114 nM
